Reference: ChEMBL document CHEMBL1132225, “Novel antidiabetic and hypolipidemic agents. 3. Benzofuran-containing thiazolidinediones” (J Med Chem, 1999)
Where “and” joins values, the source holds several entries; their conditions need not be identical. Equal values may be shown once. Calls of active or inactive are those of the source. No cut-off for these calls is given here.

What was measured:
Mus musculus [1] = organism: Mus musculus; test: Percent reduction of plasma glucose after 6 days of treatment (various doses).; assay type: functional
Mus musculus [2] = organism: Mus musculus; test: The compound was tested for percent reduction of plasma triglyceride after 6 days of treatment.; assay type: functional; design: concentration or dose not given beside the values
Mus musculus [3] = test: Percent reduction of plasma glucose (PG) after 6 days of treatment. It is the mean of standard deviation observed in plasma glucose (PG) in db/db mice at dose of 100 mg/kg/day; assay type: functional; conditions: route oral
Mus musculus [4] = test: Percent reduction of plasma glucose (PG) after 6 days of treatment. It is the mean of standard deviation observed in plasma glucose (PG) in db/db mice at dose of 30 mg/kg/day; assay type: functional; conditions: route oral
Mus musculus [5] = test: Percent reduction in plasma triglyceride (TG) after 6 days of treatment. It is the mean of standard deviation observed in plasma triglyceride (TG) in db/db mice at dose of 100 mg/kg/day; assay type: functional; conditions: route oral
Mus musculus [6] = test: Percent reduction in plasma triglyceride (TG) after 6 days of treatment. It is the mean of standard deviation observed in plasma triglyceride (TG) in db/db mice at dose of 30 mg/kg/day; assay type: functional; conditions: route oral
Mus musculus [7] = organism: Mus musculus; test: The compound was tested for percent reduction of plasma triglyceride after 6 days of treatment; Not Active; assay type: functional, organism-based
Mus musculus [8] = test: Percent reduction of plasma glucose (PG) after 6 days of treatment. It is the mean of standard deviation observed in plasma glucose (PG) in db/db mice at dose of 200 mg/kg/day; assay type: functional; conditions: route oral
Mus musculus [9] = test: Percent reduction in plasma triglyceride (TG) after 6 days of treatment. It is the mean of standard deviation observed in plasma triglyceride (TG) in db/db mice at dose of 200 mg/kg/day; NA = Not Active; assay type: functional, organism-based
Mus musculus [10] = test: Percent reduction in plasma triglyceride (TG) after 6 days of treatment. It is the mean of standard deviation observed in plasma triglyceride (TG) in db/db mice at dose of 100 mg/kg/day; NA = Not Active; assay type: functional
Mus musculus [11] = organism: Mus musculus; test: The compound was tested for percent reduction of plasma glucose after 6 days of treatment; Not Active; assay type: functional, organism-based
Mus musculus [12] = organism: Mus musculus; test: The compound was tested for percent reduction of plasma triglyceride after 6 days of treatment; not active; assay type: functional, organism-based
Mus musculus [13] = test: Percent reduction of plasma glucose (PG) after 6 days of treatment. It is the mean of standard deviation observed in plasma glucose (PG) in db/db mice at dose of 100 mg/kg/day; NA = Not Active; assay type: functional, organism-based
[14] = biological target: T1, Peroxisome proliferator-activated receptor alpha (Homo sapiens) (UniProt Q07869); test: The fold activation against 50 u M Peroxisome proliferator activated receptor alpha(amino acids 167-468)
T1 sequence (whole entry): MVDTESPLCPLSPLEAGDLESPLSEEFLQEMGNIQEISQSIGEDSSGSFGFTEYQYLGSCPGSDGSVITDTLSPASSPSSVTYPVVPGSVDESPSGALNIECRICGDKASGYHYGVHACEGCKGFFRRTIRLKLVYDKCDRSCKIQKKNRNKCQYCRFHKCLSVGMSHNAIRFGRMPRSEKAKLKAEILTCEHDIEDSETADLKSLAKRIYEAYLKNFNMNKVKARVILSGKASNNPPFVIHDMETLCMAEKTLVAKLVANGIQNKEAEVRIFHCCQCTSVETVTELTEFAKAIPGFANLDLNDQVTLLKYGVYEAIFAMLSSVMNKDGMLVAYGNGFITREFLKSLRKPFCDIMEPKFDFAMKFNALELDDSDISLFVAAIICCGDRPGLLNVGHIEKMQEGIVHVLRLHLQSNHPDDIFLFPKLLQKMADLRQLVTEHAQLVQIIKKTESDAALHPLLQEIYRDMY

[15] = biological target: T2, Peroxisome proliferator-activated receptor gamma (Homo sapiens) (UniProt P37231); test: The fold activation against 1 amino acids 174-475)
T2 sequence (whole entry): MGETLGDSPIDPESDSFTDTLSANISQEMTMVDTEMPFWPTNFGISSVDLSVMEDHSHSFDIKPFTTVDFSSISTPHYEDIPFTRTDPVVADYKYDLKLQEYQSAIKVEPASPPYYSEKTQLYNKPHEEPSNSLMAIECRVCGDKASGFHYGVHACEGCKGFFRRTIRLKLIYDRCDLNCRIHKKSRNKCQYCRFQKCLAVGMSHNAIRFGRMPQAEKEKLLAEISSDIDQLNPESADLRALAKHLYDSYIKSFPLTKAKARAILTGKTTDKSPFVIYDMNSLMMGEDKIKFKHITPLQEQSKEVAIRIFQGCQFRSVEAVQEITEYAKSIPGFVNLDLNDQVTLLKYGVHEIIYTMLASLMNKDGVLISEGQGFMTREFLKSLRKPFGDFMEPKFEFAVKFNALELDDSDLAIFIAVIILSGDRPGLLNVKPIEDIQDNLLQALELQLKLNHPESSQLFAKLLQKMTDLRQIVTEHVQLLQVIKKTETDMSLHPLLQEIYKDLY

[16] = biological target: T1, Peroxisome proliferator-activated receptor alpha (Homo sapiens); test: Compound was tested for fold transactivation of human Peroxisome proliferator activated receptor alpha at 50 uM
[17] = Pharmacokinetic Parameter, half life period measured in Female Wistar Rats at 100 mg/kg by po administration; assay type: ADME, organism-based; design: dose 100 mg/kg, route oral; conditions: rat, in vivo
[18] = Pharmacokinetic Parameter, Tmax is the time at which maximum concentration (Cmax) is reached in Female Wistar Rats at 100 mg/kg by po administration; assay type: ADME, organism-based; design: dose 100 mg/kg, route oral; conditions: rat, in vivo
[19] = Pharmacokinetic Parameter, AUC (0-infinity) is the area under the plasma concentration versus time curve extrapolated to infinity in Female Wistar Rats at 100 mg/kg by po administration; assay type: ADME, organism-based; design: time infinity, dose 100 mg/kg, route oral; conditions: rat, read-out: AUC 0-infinity
[20] = Pharmacokinetic Parameter, AUC (0-t) is the area under the plasma concentration versus time curve in Female Wistar Rats at 100 mg/kg by po administration; assay type: ADME, organism-based; design: dose 100 mg/kg, route oral; conditions: rat
[21] = Pharmacokinetic Parameter, Cmax is observed maximum plasma concentration in Female Wistar Rats at 100 mg/kg by po administration; assay type: ADME, organism-based; design: dose 100 mg/kg, route oral; conditions: rat
[22] = Pharmacokinetic Parameter, Kel is elimination rate constant in Female Wistar Rats at 100 mg/kg by po administration; assay type: ADME, organism-based; design: dose 100 mg/kg, route oral; conditions: rat, in vivo

SMILES: Cc1c(C)c2c(c(C)c1OCc1ccccc1)C(CN1CCC[C@H]1COc1ccc(CC3SC(=O)NC3=O)cc1)C(C)(C)O2 (stereo not given in full) [listing 1 of 2 here]
- Reduction (Mus musculus [1]): 48% and 37%
- Reduction (Mus musculus [2]): 31% and 22%
- PG (Mus musculus [3]): 48%
- PG (Mus musculus [4]): 37%
- TG (Mus musculus [5]): 31%
- TG (Mus musculus [6]): 22%

SMILES: Cc1c(C)c2c(c(C)c1OCc1ccccc1)C(CN(C)CCOc1ccc(/C=C3\SC(=O)NC3=O)cc1)C(C)(C)O2 (stereo not given)
- Reduction (Mus musculus [1]): 23%
- Reduction (Mus musculus [7]): inactive
- PG (Mus musculus [8]): 23%
- TG (Mus musculus [9]): inactive

SMILES: Cc1oc2c(C)c(C)c(OCc3ccccc3)c(C)c2c1CN1CCC[C@H]1COc1ccc(/C=C2\SC(=O)NC2=O)cc1
- Reduction (Mus musculus [1]): 50%
- Reduction (Mus musculus [7]): inactive
- PG (Mus musculus [3]): 50%
- TG (Mus musculus [10]): inactive

SMILES: Cc1oc2c(C)c(C)c(OCc3ccccc3)c(C)c2c1CN1CCC[C@@H](Oc2ccc(/C=C3\SC(=O)NC3=O)cc2)C1
- Reduction (Mus musculus [11]): inactive
- Reduction (Mus musculus [12]): inactive
- PG (Mus musculus [13]): inactive
- TG (Mus musculus [10]): inactive

SMILES: Cc1c(C)c2c(c(C)c1OCc1ccccc1)C(CN1CCC[C@H]1COc1ccc(CC3SC(=O)NC3=O)cc1)C(C)(C)O2.O=C(O)/C=C\C(=O)O (stereo not given in full)
- PG (Mus musculus [4]): 24%
- TG (Mus musculus [6]): 64%

SMILES: Cc1c(C)c2c(c(C)c1O)C(CN1CCC[C@H]1COc1ccc(/C=C3\SC(=O)NC3=O)cc1)C(C)(C)O2 (stereo not given in full)
- Reduction (Mus musculus [1]): 19%
- Reduction (Mus musculus [7]): inactive
- PG (Mus musculus [3]): 19%
- TG (Mus musculus [10]): inactive
- Fold activation [14]: 0.28
- Fold activation [15]: 0.84
- Transactivation [16]: 0.28 fold

SMILES: Cc1c(C)c2c(c(C)c1OCc1ccccc1)C(CN1CCC[C@H]1COc1ccc(/C=C3\SC(=O)NC3=O)cc1)C(C)(C)O2.O=C(O)/C=C\C(=O)O (stereo not given in full)
- half-life [17]: 10.1 h
- Tmax [18]: 5 h
- AUC(0-inf) [19]: 65000 ng·h/mL
- AUC(0-t) [20]: 53800 ng·h/mL
- Cmax [21]: 4300 ng/mL
- k el [22]: 1.94e-05 s⁻¹
- PG (Mus musculus [4]): 45%
- TG (Mus musculus [6]): 42%

SMILES: Cc1c(C)c2c(c(C)c1OCc1ccccc1)C(CN1CCC[C@H]1COc1ccc(/C=C3\SC(=O)NC3=O)cc1)C(C)(C)O2.Cl (stereo not given in full)
- Reduction (Mus musculus [1]): 25%
- Reduction (Mus musculus [2]): 57%
- PG (Mus musculus [4]): 25%
- TG (Mus musculus [6]): 57%

SMILES: Cc1c(C)c2c(c(C)c1OCc1ccccc1)C(COc1ccc(/C=C3\SC(=O)NC3=O)cc1)C(C)(C)O2 (stereo not given)
- Reduction (Mus musculus [1]): 10%
- Reduction (Mus musculus [12]): inactive
- PG (Mus musculus [8]): 10%
- TG (Mus musculus [9]): inactive

SMILES: Cc1c(C)c2c(c(C)c1O)C(CN(C)CCOc1ccc(CC3SC(=O)NC3=O)cc1)C(C)(C)O2 (stereo not given)
- Reduction (Mus musculus [1]): 19%
- PG (Mus musculus [8]): 19%

SMILES: Cc1c(C)c2c(c(C)c1O)C(CN1CCC[C@H]1COc1ccc(CC3SC(=O)NC3=O)cc1)C(C)(C)O2 (stereo not given in full)
- Reduction (Mus musculus [1]): 37% and 28%
- Reduction (Mus musculus [2]): 33% and 29%
- PG (Mus musculus [3]): 37%
- PG (Mus musculus [4]): 28%
- TG (Mus musculus [5]): 33%
- TG (Mus musculus [6]): 29%
- Fold activation [14]: 0.46
- Fold activation [15]: 1.21
- Transactivation [16]: 0.46 fold

SMILES: Cc1oc2c(C)c(C)c(OCc3ccccc3)c(C)c2c1CN1CCC[C@H]1COc1ccc(CC2SC(=O)NC2=O)cc1 (stereo not given in full)
- PG (Mus musculus [13]): inactive
- TG (Mus musculus [10]): inactive

SMILES: Cc1c(C)c2c(c(C)c1OCc1ccccc1)C(CN1CCC[C@H]1COc1ccc(CC3SC(=O)NC3=O)cc1)C(C)(C)O2 (stereo not given in full) [listing 2 of 2 here]
- Fold activation [14]: 0.33
- Fold activation [15]: 0.17
- Transactivation [16]: 0.33 fold

SMILES: Cc1c(C)c2c(c(C)c1OCc1ccccc1)C(CN1CCC[C@H]1COc1ccc(/C=C3\SC(=O)NC3=O)cc1)C(C)(C)O2 (stereo not given in full)
- Fold activation [14]: 0.43
- Fold activation [15]: 1.03
- Transactivation [16]: 0.43 fold

SMILES: Cc1oc2c(C)c(C)c(O)c(C)c2c1CN1CCC[C@@H](Oc2ccc(/C=C3\SC(=O)NC3=O)cc2)C1
- Reduction (Mus musculus [1]): 22%
- Reduction (Mus musculus [7]): inactive
- PG (Mus musculus [3]): 22%
- TG (Mus musculus [10]): inactive

SMILES: Cc1c(C)c2c(c(C)c1OCc1ccccc1)C(CN1CCC[C@@H](Oc3ccc(/C=C4\SC(=O)NC4=O)cc3)C1)C(C)(C)O2 (stereo not given in full)
- Reduction (Mus musculus [11]): inactive
- Reduction (Mus musculus [2]): 52%
- PG (Mus musculus [13]): inactive
- TG (Mus musculus [5]): 52%

SMILES: Cc1c(C)c2c(c(C)c1O)C(CN(C)CCOc1ccc(/C=C3\SC(=O)NC3=O)cc1)C(C)(C)O2 (stereo not given)
- Reduction (Mus musculus [1]): 28%
- Reduction (Mus musculus [2]): 76%
- PG (Mus musculus [3]): 28%
- TG (Mus musculus [10]; route oral): 76%

SMILES: Cc1c(C)c2c(c(C)c1O)C(COc1ccc(/C=C3\SC(=O)NC3=O)cc1)C(C)(C)O2 (stereo not given)
- Reduction (Mus musculus [1]): 11%
- Reduction (Mus musculus [12]): inactive
- PG (Mus musculus [8]): 11%
- TG (Mus musculus [9]): inactive

SMILES: Cc1c(C)c2c(c(C)c1O)C(COc1ccc(CC3SC(=O)NC3=O)cc1)C(C)(C)O2 (stereo not given)
- Reduction (Mus musculus [1]): 12%
- Reduction (Mus musculus [2]): 31%
